# Laboratory results as given in patent US10538555B2, “Macrocyclic inhibitors of the PD-1/PD-L1 and CD80(B7-1)/PD-L1 protein/protein interactions” (BRISTOL-MYERS SQUIBB COMPANY, priority 2014, dated 2020).
# *1 amine or outer side, *2 acyl side, *3 side chain or, on linkers, in order; H or OH if unused. Where a SMILES comes first, the peptide text is derived from it. Bridges are numbered along the chain shown (N, C = ends). [ ]: non-standard residue; d: D form. ξ: configuration not given here. Trp(1-CH2COOH) = N[C@@H](Cc1cn(CC(=O)O)c2ccccc12)C(=O)O; Phe(3,4,5-F3) = N[C@@H](Cc1cc(F)c(F)c(F)c1)C(=O)O; Phe(3,4-F2) = N[C@@H](Cc1ccc(F)c(F)c1)C(=O)O; NMePhe(4-F) = CN[C@@H](Cc1ccc(F)cc1)C(=O)O; dPro(4S-Me) = C[C@@H]1CN[C@@H](C(=O)O)C1; ξαMeW = CC(N)(Cc1c[nH]c2ccccc12)C(=O)O; d(cisHyp) = O=C(O)[C@H]1C[C@@H](O)CN1; Hyp = O=C(O)[C@@H]1C[C@@H](O)CN1; NMeF = CN[C@@H](Cc1ccccc1)C(=O)O; X1 = O=C([C@H]1COCCN1[*:1])[*:2]; dNMeF = CN[C@H](Cc1ccccc1)C(=O)O; dPip(4-aza) = O=C(O)[C@H]1CNCCN1; dHyp = O=C(O)[C@H]1C[C@H](O)CN1; NMeNle = CCCC[C@H](NC)C(=O)O; hSer = N[C@@H](CCO)C(=O)O; NMeA = CN[C@@H](C)C(=O)O; Orn = NCCC[C@H](N)C(=O)O; Dab = NCC[C@H](N)C(=O)O; Dap = NC[C@H](N)C(=O)O; ξC = NC(CS)C(=O)O; Sar = CNCC(=O)O
# Molecular target: T1, Human PD-L1/PD-1 (Homo sapiens, UniProt Q9NZQ7)
# T1 construct: TVMV protease cleavage site (C); made in house; host or cells: HEK293T cells
# Assay: HTRF Human PD-L1/PD-1 binding assay (PD-1-Ig/PD-L1-His)
# Conditions: PD-L1-His 10 nM, PD-1-Ig 20 nM; class symbol; read-out: HTRF Human PD-L1/PD-1 Binding Assay IC50 Range
# How it was run: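 HTRF competition using HEK293T-expressed human PD-1(25-167)-Ig at 20 nM and PD-L1(18-239)-His at 10 nM, compound incubated first with PD-L1 for 15 min, then with PD-1 for 15 min. Signal read as 665/620 nm ratio 30 min after adding Eu anti-Ig and APC anti-His antibodies.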
# T1 sequence (Q9NZQ7 with tags, fused parts or gaps): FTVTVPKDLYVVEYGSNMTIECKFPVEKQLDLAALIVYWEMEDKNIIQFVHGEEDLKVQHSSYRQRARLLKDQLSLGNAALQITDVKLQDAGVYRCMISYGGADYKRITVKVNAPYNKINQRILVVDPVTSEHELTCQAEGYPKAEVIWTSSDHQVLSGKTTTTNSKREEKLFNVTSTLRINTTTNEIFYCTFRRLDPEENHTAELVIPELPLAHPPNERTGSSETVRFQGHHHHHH
row,IC50,SMILES
1,10 to 99.9 nM,"CCCC[C@H]1C(=O)N2C[C@@H](C)C[C@@H]2C(=O)N[C@@H](CC(=O)O)C(=O)N[C@@H](C(C)C)C(=O)N(C)[C@H](Cc2ccccc2)C(=O)N[C@@H](Cc2ccc(OC)cc2)C(=O)N2C[C@@H](O)C[C@@H]2C(=O)N[C@@H](Cc2c[nH]c3ccccc23)C(=O)N[C@@H](Cc2ccc(O)cc2)C(=O)N[C@@H](CCCN)C(=O)N[C@H](C(=O)NCC(N)=O)CSCC(=O)N[C@@H](Cc2ccc(F)c(F)c2)C(=O)N(C)[C@@H](Cc2ccccc2)C(=O)N1C [Example 9230] ({CH2CO}-[Phe(3,4-F2)][NMeF][NMeNle][dPro(4S-Me)]DV[dNMeF]Y(Me)[dHyp]WY[Orn]CG-NH2; thioether N-13)"
2,1 to 9.9 nM,CCCC[C@H]1C(=O)N(C)[C@@H](CCCC)C(=O)N[C@@H](CC(C)C)C(=O)N[C@H](C(N)=O)CSCC(=O)N[C@@H](Cc2ccc(O)cc2)C(=O)N(C)[C@@H](C)C(=O)N[C@@H](CC(N)=O)C(=O)N2CCC[C@H]2C(=O)N[C@@H](CN)C(=O)N[C@@H](CC(C)C)C(=O)N2C[C@H](O)C[C@H]2C(=O)N[C@@H](Cc2c[nH]c3ccccc23)C(=O)N[C@@H](CO)C(=O)N[C@@H](Cc2cn(CC(=O)O)c3ccccc23)C(=O)N1C [Example 6180] ({CH2CO}-Y[NMeA]NP[Dap]L[Hyp]WS[Trp(1-CH2COOH)][NMeNle][NMeNle]LC-NH2; thioether N-14)
3,1 to 9.9 nM,"CCCC[C@H]1C(=O)N2CCC[C@@H]2C(=O)N[C@@H](CC(=O)O)C(=O)N[C@@H](C(C)C)C(=O)N(C)[C@@H](Cc2ccccc2)C(=O)N[C@@H](CCC(=O)O)C(=O)N2CCOC[C@@H]2C(=O)N[C@@H](Cc2c[nH]c3ccccc23)C(=O)N[C@@H](Cc2ccc(O)cc2)C(=O)N[C@@H](CC(C)C)C(=O)N[C@H](C(=O)NCC(N)=O)CSCC(=O)N[C@@H](Cc2cc(F)c(F)c(F)c2)C(=O)N(C)[C@@H](Cc2ccc(F)cc2)C(=O)N1C [Example 10593] ({CH2CO}-[Phe(3,4,5-F3)][NMePhe(4-F)][NMeNle][dP]DV[NMeF]E[X1]WYLCG-NH2; thioether N-13)"
4,1 to 9.9 nM,"CCCC[C@H]1C(=O)N2C[C@H](O)C[C@@H]2C(=O)N[C@@H](CC(=O)O)C(=O)N[C@@H](C(C)C)C(=O)N(C)[C@@H](Cc2ccccc2)C(=O)N[C@@H](CCN)C(=O)N2C[C@H](O)C[C@@H]2C(=O)N[C@@H](Cc2c[nH]c3ccccc23)C(=O)N[C@@H](Cc2ccc(O)cc2)C(=O)N[C@@H](CC(C)C)C(=O)N[C@H](C(=O)NCC(N)=O)CSCC(=O)N[C@@H](Cc2ccc(F)c(F)c2)C(=O)N(C)[C@@H](Cc2ccccc2)C(=O)N1C [Example 9298] ({CH2CO}-[Phe(3,4-F2)][NMeF][NMeNle][d(cisHyp)]DV[NMeF][Dab][d(cisHyp)]WYLCG-NH2; thioether N-13)"
5,100 to 990 nM,"CCCC[C@H]1C(=O)N(C)CC(=O)N[C@@H](CC(=O)O)C(=O)NC(C(C)c2ccccc2)C(=O)N(C)[C@@H](Cc2ccccc2)C(=O)N[C@@H](Cc2ccc(O)cc2)C(=O)N(C)CC(=O)N[C@@H](Cc2c[nH]c3ccccc23)C(=O)N[C@@H](Cc2ccc(O)cc2)C(=O)N[C@@H](CC(C)C)C(=O)N[C@H](C(=O)NCC(N)=O)CSCC(=O)N[C@@H](Cc2ccccc2)C(=O)N(C)[C@@H](Cc2ccccc2)C(=O)N1C (single isomer, unassigned) [Example 3230-C]"
6,10 to 99.9 nM,CCCC[C@H]1C(=O)N(C)[C@@H](CCCC)C(=O)N[C@@H](CC(C)C)C(=O)N[C@H](C(=O)NCC(N)=O)CSCC(=O)N[C@@H](Cc2ccc(O)cc2)C(=O)N(C)[C@@H](C)C(=O)N[C@@H](CC(N)=O)C(=O)N2CCC[C@H]2C(=O)N[C@@H](CO)C(=O)N[C@@H](CCC(=O)O)C(=O)N2C[C@H](O)C[C@H]2C(=O)N[C@@H](Cc2c[nH]c3ccccc23)C(=O)N[C@@H](CCN)C(=O)N[C@@H](Cc2cn(CC(=O)O)c3ccccc23)C(=O)N1C [Example 6266] ({CH2CO}-Y[NMeA]NPSE[Hyp]W[Dab][Trp(1-CH2COOH)][NMeNle][NMeNle]LCG-NH2; thioether N-14)
7,1000 to 10000 nM,CCCC[C@H]1C(=O)N(C)CC(=O)N[C@@H](CC(=O)O)C(=O)N[C@@H](C(C)C)C(=O)N[C@@H](Cc2ccccc2)C(=O)N[C@@H](Cc2ccc(O)cc2)C(=O)N(C)CC(=O)NC(C)(Cc2c[nH]c3ccccc23)C(=O)N[C@@H](Cc2ccc(O)cc2)C(=O)N[C@@H](CC(C)C)C(=O)N[C@H](C(=O)NCC(N)=O)CSCC(=O)N[C@@H](Cc2ccccc2)C(=O)N(C)[C@@H](Cc2ccccc2)C(=O)N1C (some centres unmarked) [Example 3639] ({CH2CO}-F[NMeF][NMeNle][Sar]DVFY[Sar][ξαMeW]YLCG-NH2; thioether N-13)
8,10 to 99.9 nM,CCCC[C@H]1C(=O)N(C)[C@@H](CCCC)C(=O)N[C@@H](CCCNC(=N)N)C(=O)NC(C(=O)NCC(N)=O)CSCC(=O)N[C@@H](Cc2ccc(O)cc2)C(=O)N(C)[C@@H](C)C(=O)N[C@@H](CC(N)=O)C(=O)N2CCC[C@H]2C(=O)N[C@@H](CCO)C(=O)N[C@@H](CO)C(=O)N2CCC[C@H]2C(=O)N[C@@H](Cc2c[nH]c3ccccc23)C(=O)N[C@@H](CO)C(=O)N[C@@H](Cc2c[nH]c3ccccc23)C(=O)N1C (some centres unmarked) [Example 10024] ({CH2CO}-Y[NMeA]NP[hSer]SPWSW[NMeNle][NMeNle]R[ξC]G-NH2; thioether N-14)
9,1 to 9.9 nM,CCCC[C@H]1C(=O)N(C)[C@@H](CCCC)C(=O)N[C@@H](CCC(=O)O)C(=O)N[C@H](C(=O)NCC(N)=O)CSCC(=O)N[C@@H](Cc2ccc(O)cc2)C(=O)N(C)[C@@H](C)C(=O)N[C@@H](CC(N)=O)C(=O)N2CCC[C@H]2C(=O)N[C@@H](CN)C(=O)N[C@@H](CCC(N)=O)C(=O)N2C[C@H](O)C[C@H]2C(=O)N[C@@H](Cc2c[nH]c3ccccc23)C(=O)N[C@@H](CO)C(=O)N[C@@H](Cc2c[nH]c3ccccc23)C(=O)N1C [Example 5208] ({CH2CO}-Y[NMeA]NP[Dap]Q[Hyp]WSW[NMeNle][NMeNle]ECG-NH2; thioether N-14)
10,1 to 9.9 nM,"CCCC[C@H]1C(=O)N2C[C@H](O)C[C@@H]2C(=O)N[C@@H](CC(=O)O)C(=O)N[C@@H](C(C)C)C(=O)N(C)[C@@H](Cc2ccccc2)C(=O)N[C@@H](CCC(=O)O)C(=O)N2CCNC[C@@H]2C(=O)N[C@@H](Cc2c[nH]c3ccccc23)C(=O)N[C@@H](Cc2ccc(O)cc2)C(=O)N[C@@H](CCCN)C(=O)N[C@H](C(=O)NCC(N)=O)CSCC(=O)N[C@@H](Cc2cc(F)c(F)c(F)c2)C(=O)N(C)[C@@H](Cc2ccccc2)C(=O)N1C [Example 10166] ({CH2CO}-[Phe(3,4,5-F3)][NMeF][NMeNle][d(cisHyp)]DV[NMeF]E[dPip(4-aza)]WY[Orn]CG-NH2; thioether N-13)"

# Same assay, conditions: PD-L1-His 10 nM, PD-1-Ig 20 nM; read-out: HTRF Human PD-L1/PD-1 Binding Assay IC50
row,IC50,SMILES
1,2900 nM,CCCC[C@H]1NC(=O)[C@H](Cc2c[nH]c3ccccc23)NC(=O)[C@H](CO)NC(=O)[C@H](Cc2c[nH]c3ccccc23)NC(=O)[C@@H]2C[C@@H](O)CN2C(=O)[C@H](CC(C)C)NC(=O)[C@H](Cc2cnc[nH]2)NC(=O)[C@@H]2CCCN2C(=O)[C@H](CC(N)=O)NC(=O)[C@H](C)N(C)C(=O)[C@H](Cc2ccc(O)cc2)NC(=O)CSCC(C(=O)NCC(N)=O)NC(=O)[C@H](CCC(=O)O)NC(=O)[C@H](CCCC)N(C)C1=O (some centres unmarked) [Example 10131]
